Assay results: ChEMBL document CHEMBL4251711, “Bioactive Indolocarbazoles from the Marine-Derived Streptomyces sp. DT-A61” (J Nat Prod, 2018)

Legend:
[1] = molecular target: Protein kinase C alpha type (Homo sapiens, UniProt P17252); test: Inhibition of PKCalpha (unknown origin) by HTRF assay
[2] = molecular target: T1, Mitogen-activated protein kinase kinase kinase 5 (Homo sapiens, UniProt Q99683); test: Inhibition of ASK1 (unknown origin) by HTRF assay
T1 sequence (Q99683 whole entry): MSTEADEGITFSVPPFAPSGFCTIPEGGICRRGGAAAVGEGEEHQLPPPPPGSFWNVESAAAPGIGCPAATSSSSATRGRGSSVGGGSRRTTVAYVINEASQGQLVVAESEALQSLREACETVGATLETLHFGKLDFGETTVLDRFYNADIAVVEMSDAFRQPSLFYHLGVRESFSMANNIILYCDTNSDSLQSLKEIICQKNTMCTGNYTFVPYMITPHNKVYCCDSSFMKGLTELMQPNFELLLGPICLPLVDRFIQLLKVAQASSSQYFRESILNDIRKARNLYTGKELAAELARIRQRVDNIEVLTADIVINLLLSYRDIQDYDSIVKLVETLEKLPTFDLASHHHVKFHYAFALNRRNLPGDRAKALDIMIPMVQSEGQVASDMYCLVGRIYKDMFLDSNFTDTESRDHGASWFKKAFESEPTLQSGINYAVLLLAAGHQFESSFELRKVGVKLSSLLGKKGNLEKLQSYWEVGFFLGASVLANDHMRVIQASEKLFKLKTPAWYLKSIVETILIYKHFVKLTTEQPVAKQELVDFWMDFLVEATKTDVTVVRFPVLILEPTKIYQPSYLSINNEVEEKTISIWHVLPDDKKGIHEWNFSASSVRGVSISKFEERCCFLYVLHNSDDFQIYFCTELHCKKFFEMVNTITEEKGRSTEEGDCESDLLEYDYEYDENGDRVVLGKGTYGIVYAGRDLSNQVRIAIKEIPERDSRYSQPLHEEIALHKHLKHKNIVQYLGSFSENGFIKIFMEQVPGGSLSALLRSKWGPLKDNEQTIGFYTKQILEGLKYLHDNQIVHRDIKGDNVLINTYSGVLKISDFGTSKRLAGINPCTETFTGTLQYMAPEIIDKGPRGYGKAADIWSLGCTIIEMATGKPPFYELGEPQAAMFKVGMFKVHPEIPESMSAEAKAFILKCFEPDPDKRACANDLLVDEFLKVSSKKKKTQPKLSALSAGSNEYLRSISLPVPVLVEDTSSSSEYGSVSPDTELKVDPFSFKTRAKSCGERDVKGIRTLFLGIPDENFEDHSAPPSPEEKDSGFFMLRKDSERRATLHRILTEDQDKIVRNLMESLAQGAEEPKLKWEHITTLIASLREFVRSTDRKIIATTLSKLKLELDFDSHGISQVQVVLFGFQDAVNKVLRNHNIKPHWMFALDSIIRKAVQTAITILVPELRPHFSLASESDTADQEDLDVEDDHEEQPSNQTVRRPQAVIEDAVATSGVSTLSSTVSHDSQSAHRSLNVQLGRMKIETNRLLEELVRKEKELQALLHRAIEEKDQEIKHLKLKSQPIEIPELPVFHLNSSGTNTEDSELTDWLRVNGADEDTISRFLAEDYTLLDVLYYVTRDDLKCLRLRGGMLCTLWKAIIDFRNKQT

[3] = molecular target: Rho-associated protein kinase 2 (Homo sapiens, UniProt O75116); test: Inhibition of ROCK2 (unknown origin) by HTRF assay
Sequence of Rho-associated protein kinase 2 (O75116 whole entry): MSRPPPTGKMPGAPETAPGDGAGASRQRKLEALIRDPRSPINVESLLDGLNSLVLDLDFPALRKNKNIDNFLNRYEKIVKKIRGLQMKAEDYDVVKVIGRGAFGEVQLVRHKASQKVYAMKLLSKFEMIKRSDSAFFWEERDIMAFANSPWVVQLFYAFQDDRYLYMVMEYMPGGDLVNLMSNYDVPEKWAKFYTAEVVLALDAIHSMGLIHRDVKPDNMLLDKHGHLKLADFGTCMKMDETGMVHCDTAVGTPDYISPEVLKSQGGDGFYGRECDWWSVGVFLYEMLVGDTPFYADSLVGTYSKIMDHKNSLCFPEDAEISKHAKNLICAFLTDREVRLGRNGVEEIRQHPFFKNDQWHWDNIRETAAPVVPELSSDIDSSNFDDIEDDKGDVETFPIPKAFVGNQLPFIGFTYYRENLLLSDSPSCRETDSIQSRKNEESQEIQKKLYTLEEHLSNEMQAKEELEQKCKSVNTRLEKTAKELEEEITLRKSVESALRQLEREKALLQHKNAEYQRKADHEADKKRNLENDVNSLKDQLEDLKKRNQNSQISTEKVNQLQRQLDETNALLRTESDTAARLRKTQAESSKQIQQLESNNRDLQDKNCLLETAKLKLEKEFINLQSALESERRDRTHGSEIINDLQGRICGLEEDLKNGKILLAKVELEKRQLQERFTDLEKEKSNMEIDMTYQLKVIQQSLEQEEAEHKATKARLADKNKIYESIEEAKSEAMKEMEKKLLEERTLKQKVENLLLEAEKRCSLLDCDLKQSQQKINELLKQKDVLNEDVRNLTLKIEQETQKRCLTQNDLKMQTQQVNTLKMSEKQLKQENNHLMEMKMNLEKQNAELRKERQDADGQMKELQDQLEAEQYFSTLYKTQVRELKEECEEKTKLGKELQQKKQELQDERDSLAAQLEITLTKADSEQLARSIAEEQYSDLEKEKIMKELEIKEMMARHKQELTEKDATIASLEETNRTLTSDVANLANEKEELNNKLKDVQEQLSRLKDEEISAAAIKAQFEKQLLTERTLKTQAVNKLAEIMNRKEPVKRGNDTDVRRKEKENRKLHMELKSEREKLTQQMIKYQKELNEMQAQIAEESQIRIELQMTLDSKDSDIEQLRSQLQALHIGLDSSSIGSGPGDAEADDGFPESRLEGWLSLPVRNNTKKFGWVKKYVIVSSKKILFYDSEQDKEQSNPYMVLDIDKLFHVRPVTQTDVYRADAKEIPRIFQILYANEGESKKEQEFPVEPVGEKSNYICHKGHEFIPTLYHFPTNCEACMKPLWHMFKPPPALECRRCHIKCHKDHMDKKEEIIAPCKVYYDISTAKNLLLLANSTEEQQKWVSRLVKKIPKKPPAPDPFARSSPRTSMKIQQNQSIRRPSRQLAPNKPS

PC-3 = test: Cytotoxicity against human PC3 cells after 72 hrs by SRB assay; format: functional, cell-based; conditions: PC-3, 72 h

Structure (SMILES)	IC50 [1] [µM]	IC50 [2] [µM]	IC50 [3] [µM]	IC50 (PC-3) [µM]
CC(=O)N[C@H]1C[C@H]2O[C@@](C)([C@@H]1O)n1c3ccccc3c3c4c(c5c6ccccc6n2c5c31)C(=O)NC4	0.092	0.77	0.26	0.16
CC(=O)N[C@@H]1C[C@H](n2c3ccccc3c3c4c(c5c6cc(O)ccc6[nH]c5c32)CNC4=O)O[C@@H](C)[C@@H]1O	0.097	> 50	1.4	–
C[C@H]1O[C@@H]2C[C@](O)([C@H]1O)n1c3ccccc3c3c4c(c5c6cc(O)ccc6n2c5c31)C(=O)NC4	1.4	> 50	0.34	5.6
COC1NC(=O)c2c1c1c3ccccc3[nH]c1c1[nH]c3ccc(O)cc3c21 (stereo not given)	1.4	> 50	0.91	18
O=C1NCc2c1c1c3ccccc3[nH]c1c1[nH]c3ccc(O)cc3c21	0.98	0.74	0.34	8
CC(=O)N[C@@H]1C[C@H](n2c3ccc(O)cc3c3c4c(c5c6ccccc6[nH]c5c32)CNC4=O)O[C@@H](C)[C@@H]1O	0.46	6.4	0.04	3.6
C[C@@H]1O[C@@H](n2c3ccc(O)cc3c3c4c(c5c6ccccc6[nH]c5c32)CNC4=O)C[C@@H](N)[C@H]1O	0.079	1.1	0.15	3.1
C[C@@H]1O[C@@H]2C[C@](O)([C@H]1O)n1c3ccccc3c3c4c(c5c6cc(O)ccc6n2c5c31)C(=O)NC4	2.1	4.1	0.97	39
O=C1NCc2c1c1c3cc(O)ccc3[nH]c1c1[nH]c3ccccc3c21	3.2	3	0.0057	21
